Measured values as given in PubChem BioAssay AID1918934 (Molecular Pharmacology Branch, DTP, NCI, 2023).

Test system: 292921-168-R-J2-PDC complex spheroid viability
Test: Anticancer human tumor 292921-168-R-J2-PDC patient-derived pancreatic carcinoma cell line growth inhibition
Details: for IC50: curve of first compound; for viability, T/C: stronger effect = lower value; active = viability on the fitted dose curve at most 10% of control; inactive = the rest
Outline: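 Complex spheroids of tumor cells with HUVEC and human MSCs, exposed to iadademstat combined with other agents. Each agent tested in half-log steps from near clinical Cmax (else 10 microM top), DMSO ≤0.25%.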

[1] = second compound 0.1 µM, first compound 0.000949 µM
[2] = second compound 0.1 µM, first compound 0.003 µM
[3] = second compound 0.1 µM, first compound 0.00949 µM
[4] = second compound 0.1 µM, first compound 0.03 µM
[5] = second compound 0.1 µM, first compound 0.0949 µM
[6] = second compound 0.1 µM, first compound 0.3 µM
[7] = second compound 0.316 µM, first compound 0.000949 µM
[8] = second compound 0.316 µM, first compound 0.003 µM
[9] = second compound 0.316 µM, first compound 0.00949 µM
[10] = second compound 0.316 µM, first compound 0.03 µM
[11] = second compound 0.316 µM, first compound 0.0949 µM
[12] = second compound 0.316 µM, first compound 0.3 µM
[13] = second compound 1 µM, first compound 0.000949 µM
[14] = second compound 1 µM, first compound 0.003 µM
[15] = second compound 1 µM, first compound 0.00949 µM
[16] = second compound 1 µM, first compound 0.03 µM
[17] = second compound 1 µM, first compound 0.0949 µM
[18] = second compound 1 µM, first compound 0.3 µM
[19] = second compound 3.16 µM, first compound 0.000949 µM
[20] = second compound 3.16 µM, first compound 0.003 µM
[21] = second compound 3.16 µM, first compound 0.00949 µM
[22] = second compound 3.16 µM, first compound 0.03 µM
[23] = second compound 3.16 µM, first compound 0.0949 µM
[24] = second compound 3.16 µM, first compound 0.3 µM
[25] = second compound 10 µM, first compound 0.000949 µM
[26] = second compound 10 µM, first compound 0.003 µM
[27] = second compound 10 µM, first compound 0.00949 µM
[28] = second compound 10 µM, first compound 0.03 µM
[29] = second compound 10 µM, first compound 0.0949 µM
[30] = second compound 10 µM, first compound 0.3 µM
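Note: seven day compound exposure before luminescent viability read.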
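Throughout, for viability, T/C: 100% = DMSO vehicle control wells.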

CC[C@@]1(O)C(=O)OCc2c1cc1n(c2=O)Cc2cc3c(CN(C)C)c(O)ccc3nc2-1 + NC1CCC(NC2CC2c2ccccc2)CC1
2.11 nM: IC50 (second compound 0.1 µM)
active: viability, T/C (second compound 0.1 µM, first compound 0.0316 µM) 8.14% | viability, T/C (second compound 0.1 µM, first compound 0.1 µM) 4.05% | viability, T/C (second compound 0.316 µM, first compound 0.0316 µM) 8.83% | viability, T/C (second compound 0.316 µM, first compound 0.1 µM) 4.07% | viability, T/C (second compound 1 µM, first compound 0.0316 µM) 10.6% | viability, T/C (second compound 1 µM, first compound 0.1 µM) 4.35% | viability, T/C (second compound 3.16 µM, first compound 0.0316 µM) 8.6% | viability, T/C (second compound 3.16 µM, first compound 0.1 µM) 3.74% | viability, T/C (second compound 10 µM, first compound 0.0316 µM) 8.03% | viability, T/C (second compound 10 µM, first compound 0.1 µM) 3.69%
inactive: viability, T/C (second compound 0.1 µM, first compound 0.000316 µM) 64.5% | viability, T/C (second compound 0.1 µM, first compound 0.001 µM) 60.2% | viability, T/C (second compound 0.1 µM, first compound 0.00316 µM) 44.6% | viability, T/C (second compound 0.1 µM, first compound 0.01 µM) 19.7% | viability, T/C (second compound 0.316 µM, first compound 0.000316 µM) 61.4% | viability, T/C (second compound 0.316 µM, first compound 0.001 µM) 61% | viability, T/C (second compound 0.316 µM, first compound 0.00316 µM) 37.9% | viability, T/C (second compound 0.316 µM, first compound 0.01 µM) 18.5% | viability, T/C (second compound 1 µM, first compound 0.000316 µM) 61.2% | viability, T/C (second compound 1 µM, first compound 0.001 µM) 56.4% | viability, T/C (second compound 1 µM, first compound 0.00316 µM) 40.9% | viability, T/C (second compound 1 µM, first compound 0.01 µM) 19.4% | viability, T/C (second compound 3.16 µM, first compound 0.000316 µM) 54.9% | viability, T/C (second compound 3.16 µM, first compound 0.001 µM) 50.8% | viability, T/C (second compound 3.16 µM, first compound 0.00316 µM) 38.2% | viability, T/C (second compound 3.16 µM, first compound 0.01 µM) 18.5% | viability, T/C (second compound 10 µM, first compound 0.000316 µM) 51.4% | viability, T/C (second compound 10 µM, first compound 0.001 µM) 50.9% | viability, T/C (second compound 10 µM, first compound 0.00316 µM) 36.9% | viability, T/C (second compound 10 µM, first compound 0.01 µM) 15.6%
1.07 nM: IC50 (second compound 3.16 µM)
1.65 nM: IC50 (second compound 0.316 µM)
1.58 nM: IC50 (second compound 1 µM)
0.869 nM: IC50 (second compound 10 µM)

CCc1c2c(nc3ccc(O)cc13)-c1cc3c(c(=O)n1C2)COC(=O)[C@]3(O)CC + NC1CCC(NC2CC2c2ccccc2)CC1
< 0.949 nM: IC50 (second compound 0.1 µM) | IC50 (second compound 0.316 µM) | IC50 (second compound 1 µM) | IC50 (second compound 3.16 µM) | IC50 (second compound 10 µM)
active: viability, T/C [1] 5.27% | viability, T/C [2] 3.61% | viability, T/C [3] 1.77% | viability, T/C [4] 0.99% | viability, T/C [5] 0.98% | viability, T/C [6] 1.08% | viability, T/C [7] 5.76% | viability, T/C [8] 4.37% | viability, T/C [9] 1.62% | viability, T/C [10] 0.85% | viability, T/C [11] 0.86% | viability, T/C [12] 1.09% | viability, T/C [13] 5.78% | viability, T/C [14] 3.94% | viability, T/C [15] 1.33% | viability, T/C [16] 0.71% | viability, T/C [17] 0.85% | viability, T/C [18] 0.78% | viability, T/C [19] 6.37% | viability, T/C [20] 3.93% | viability, T/C [21] 1.39% | viability, T/C [22] 0.55% | viability, T/C [23] 0.97% | viability, T/C [24] 0.91% | viability, T/C [25] 4.96% | viability, T/C [26] 3.66% | viability, T/C [27] 0.99% | viability, T/C [28] 0.7% | viability, T/C [29] 0.8% | viability, T/C [30] 0.74%

Nc1ccn(C2OC(CO)C(O)C2(F)F)c(=O)n1 (stereo not given) + NC1CCC(NC2CC2c2ccccc2)CC1
inactive: viability, T/C [1] 27.8% | viability, T/C [7] 28.2% | viability, T/C [8] 11.6% | viability, T/C [13] 21.8% | viability, T/C [14] 10.7% | viability, T/C [19] 22.2% | viability, T/C [20] 10.4% | viability, T/C [25] 23.4% | viability, T/C [26] 10.2%
< 0.949 nM: IC50 (second compound 0.1 µM) | IC50 (second compound 0.316 µM) | IC50 (second compound 1 µM) | IC50 (second compound 3.16 µM) | IC50 (second compound 10 µM)
active: viability, T/C [2] 9.83% | viability, T/C [3] 8.07% | viability, T/C [4] 6.88% | viability, T/C [5] 7.25% | viability, T/C [6] 6.85% | viability, T/C [9] 6.99% | viability, T/C [10] 6.4% | viability, T/C [11] 8.06% | viability, T/C [12] 7.6% | viability, T/C [15] 8.29% | viability, T/C [16] 7.78% | viability, T/C [17] 8.71% | viability, T/C [18] 7.52% | viability, T/C [21] 8.35% | viability, T/C [22] 7.52% | viability, T/C [23] 8.12% | viability, T/C [24] 8.1% | viability, T/C [27] 9% | viability, T/C [28] 9.62% | viability, T/C [29] 8.3% | viability, T/C [30] 9.08%
